The conditions of test [1]: background statement, test system not given; cited from earlier work.
The subject of the next test is AA8 cells. Briefly: Growth inhibition (cytotoxicity) in AA8 cells, 18 h drug exposure, methylene blue staining. The settings on record: Cricetulus griseus, CHO-AA8, 18 h exposure then 78 h growth, 50% inhibition of growth relative to controls. It is filed as cell-based, Chinese hamster. The protocol: (§1) The compounds of Examples 1 and 3 show potent cytotoxicity to mammalian tumour cells, and are thus of interest as anticancer drugs. […] For these evaluations, AA8 and UV4 cells were maintained in exponential phase growth (doubling times 14 and 15 h respectively) using Alpha MEM containing fetal calf serum (10% v/v) without antibiotics, and were subcultured twice weekly by trypsinization. Bulk cultures were prepared for experiments by seeding cells in spinner flasks at 10^4 cells/mL in the above medium with addition of penicillin (100 IU/mL) and streptomycin (100 μg/mL). Cultures were initiated in 96-well microtiter trays to give 200 (AA8) or 300 (UV4) cells in 0.05 mL per well. After growth in a CO2 incubator for 24 h, drugs were added in culture medium, using serial two-fold dilutions to provide duplicate cultures at five different concentrations for each of eight drugs (plus eight controls) per tray. After 18 h drugs were removed by washing cultures three times with fresh medium, and the trays were incubated for a further 78 h. Cell density was then determined by staining with methylene blue as described [Finlay, G. J.; Baguley, B. C; Wilson, W. R. Anal. Biochem., 1984, 139, 272-277]. The IC50 was calculated as the drug concentration providing 50% inhibition of growth relative to the controls.

Test [2] has as its system UV4 cells. Briefly: Growth inhibition (cytotoxicity) in UV4 cells, 18 h drug exposure, methylene blue staining. It is filed as cell-based, Chinese hamster. The conditions noted are these: Cricetulus griseus, 18 h exposure then 78 h growth (Example 9), read-out: IC50 against UV4 cells. The protocol:
as §1, with “controls. […]” for “controls.”

Test [3] has as its system UV4 cells. Put plainly: Activation of prodrug by E. coli nitroreductase: IC50 in UV4 cells without and with purified enzyme and NADH. The format is cell-based, Chinese hamster. The settings on record: for IC50: 18 hours; for fold activation by the enzyme: ratio of IC50 without to IC50 with E. coli nitroreductase, 1080 min. As to the method:
as §1
The compound was incubated with UV4 cells for 18 hours in 96-well plates under aerobic conditions. The UV4 cell line is a mutant Chinese hamster ovary fibroblast lines derived from the wild-type AA8. It is a UV complementation group 1 mutant, with a defect in the incision step of excision repair [Thompson, L. H. et al Proc. Natl. Acad. Sci (USA), 1980, 78, 3734; Thompson, L. H.; Carrono, A. V. In Cellular responses to DNA Damage, UCLA Symposium on Molecular and Cellular Biology, New Series, Vol. 11 (Freidberg, E. C.; Bridges, B. R.; Eds), Alan R. Liss: New York, 1983: p 125], and is highly sensitive to agents which form bulky DNA monoadducts or crosslinks [Hoy, C.A . et al Cancer Res., 1985, 45, 1737-1747].
The experiment was repeated but in addition purified E. coli nitroreductase enzyme (1 μg/mL) and NADH (1 mM, as cofactor) was added during the entire time of the incubation. […] This represents a 26-fold activation by the enzyme.

The test system of the next test is human tumours. The conditions noted are these: background statement; cited from earlier work.

Each structure is given as a SMILES string.

For the molecule `COc1c(O)c2c(c3cc(C(=O)N4CCc5c4c(O)c(OC)c4[nH]c(C(=O)N6CC7CC78C6=CC(=O)c6[nH]cc(C)c68)cc54)[nH]c13)CCN2C(N)=O` (stereo not shown) [CC-1065], the concentration for half-maximal inhibition (IC50) entry in test [1] is recorded as “low pM range”.

Take `COc1cc2cc(C(=O)N3CC(CCl)c4ccc(N)cc43)[nH]c2c(OC)c1OC` (stereo not shown) [Example 1, 6-Amino-3-(chloromethyl)-1-[(5',6',7'-trimethoxyindol-2'-yl)carbonyl]indoline]: the figures for the IC50 in the test with AA8 cells and in the test with UV4 cells [2] were 320 nM and 59 nM, respectively.

`COc1cc2cc(C(=O)N3CC(CCl)c4ccc(NC(=O)OCc5ccc([N+](=O)[O-])cc5)cc43)[nH]c2c(OC)c1OC` (stereo not shown) [Example 3, 3-(Chloromethyl)-6-[(4"-nitrobenzyloxycarbonyl)amino]-1-[(5',6',7'-trimethoxyindol-2'-yl)carbonyl]indoline]: the IC50 came out at 11900 nM in the test on UV4 cells [3] (Cricetulus griseus, aerobic conditions, no enzyme (Example 10), read-out: IC50 in UV4 cells in the absence of E. coli nitroreductase); 460 nM in the test with UV4 cells [3] (Cricetulus griseus, aerobic, purified E. coli nitroreductase 1 μg/mL and NADH 1 mM during the entire incubation, read-out: IC50 in UV4 cells in the presence of E. coli nitroreductase); 23000 nM in the test on AA8 cells; 19600 nM with UV4 cells [2]. Moreover, in the test with UV4 cells [3], the “fold activation by the enzyme” value amounted to 26 fold.

For `COC(=O)c1c(C)[nH]c2c(OC(=O)N3CCN(C)CC3)cc3c(c12)[C@H](CBr)CN3C(=O)c1cc2cc(OC)c(OC)c(OC)c2[nH]1` [KW-2189], in the test on human tumours, the “anticancer activity against a range of human tumours” value is given as “show anticancer activity against a range of human tumours”.

`CCN(CC)c1ccc2cc(C(=O)Nc3ccc4[nH]c(C(=O)N5C[C@@H](CCl)c6c5cc(OC(=O)Nc5ccccc5)c5[nH]cc(C)c65)cc4c3)oc2c1` [carzelesin]: the “anticancer activity against a range of human tumours” value in the test with human tumours is reported as “show anticancer activity against a range of human tumours”.

For `COc1cc2cc(C(=O)N3CC(CCl)c4ccc([N+](=O)[O-])cc43)[nH]c2c(OC)c1OC` (stereo not shown) [example 1(h), 3-(Chloromethyl)-6-nitro-1-[(5',6',7'-trimethoxyindol-2'-yl)carbonyl]indoline], the IC50 was 2340 nM with UV4 cells [3] (aerobic conditions, no enzyme (Example 10), read-out: IC50 in UV4 cells in the absence of E. coli nitroreductase); 6 nM with UV4 cells [3] (aerobic, purified E. coli nitroreductase 1 μg/mL and NADH 1 mM during the entire incubation, read-out: IC50 in UV4 cells in the presence of E. coli nitroreductase). In addition, in the test with UV4 cells [3], the “fold activation by the enzyme” value came to 400 fold.

Values taken from patent US5985909A, “Cyclopropylindoles and their seco precursors, and their use as prodrugs” (Cancer Research Campaign Technology Limited, priority 1995, dated 1999).
